Test results: ChEMBL document CHEMBL3616410, “Linked pyridinyl-thiadiazoles: Design and synthesis as potential candidate for treatment of XDR and MDR tuberculosis” (Eur J Med Chem, 2015)
Converted amounts (≈) assume the structure as drawn.

What was measured:
[1] = Cytotoxicity against hamster BHK21 cells after 3 days; format: cell-based, Mesocricetus auratus, BHK-21
[2] = tested on: Mycobacterium tuberculosis; test: Bactericidal activity against Mycobacterium tuberculosis H37Rv ATCC 27294 after 5 days by spectrophotometry; format: functional
[3] = tested on: Mycobacterium tuberculosis; test: Antimycobacterial activity against Mycobacterium tuberculosis H37Rv ATCC 27294 after 5 days by spectrophotometry; format: functional; conditions: H37Rv ATCC 27294, 120 h
[4] = Cytotoxicity against human HepG2 cells after 3 days; format: cell-based
[5] = tested on: Mycobacterium tuberculosis; test: Antimycobacterial activity against Mycobacterium tuberculosis W4 after 5 days by spectrophotometry; format: functional; conditions: W4, 120 h
[6] = tested on: Mycobacterium tuberculosis; test: Antimycobacterial activity against Mycobacterium tuberculosis TN913 after 5 days by spectrophotometry; format: functional; conditions: TN913, 120 h
[7] = tested on: Mycobacterium tuberculosis; test: Antimycobacterial activity against Mycobacterium tuberculosis TN1037 after 5 days by spectrophotometry; format: functional; conditions: TN1037, 120 h
[8] = tested on: Mycobacterium tuberculosis; test: Antimycobacterial activity against Mycobacterium tuberculosis TN994 after 5 days by spectrophotometry; format: functional; conditions: TN994, 120 h
[9] = tested on: Mycobacterium tuberculosis; test: Antimycobacterial activity against Mycobacterium tuberculosis TN2351 after 5 days by spectrophotometry; format: functional; conditions: TN2351, 120 h
[10] = tested on: Mycobacterium tuberculosis; test: Antimycobacterial activity against Mycobacterium tuberculosis TN1051 after 5 days by spectrophotometry; format: functional; conditions: TN1051, 120 h
[11] = tested on: Mycobacterium tuberculosis; test: Antimycobacterial activity against Mycobacterium tuberculosis TN3979 after 5 days by spectrophotometry; format: functional; conditions: TN3979, 120 h
[12] = tested on: Mycobacterium tuberculosis; test: Antimycobacterial activity against Mycobacterium tuberculosis TN4259 after 5 days by spectrophotometry; format: functional; conditions: TN4259, 120 h
[13] = tested on: Mycobacterium tuberculosis; test: Antimycobacterial activity against Mycobacterium tuberculosis TN1082 after 5 days by spectrophotometry; format: functional; conditions: TN1082, 120 h
[14] = tested on: Mycobacterium tuberculosis; test: Antimycobacterial activity against Mycobacterium tuberculosis AH9584 after 5 days by spectrophotometry; format: functional; conditions: AH9584, 120 h
[15] = tested on: Mycobacterium tuberculosis; test: Antimycobacterial activity against Mycobacterium tuberculosis TN2524 after 5 days by spectrophotometry; format: functional; conditions: TN2524, 120 h
[16] = tested on: Mycobacterium tuberculosis; test: Antimycobacterial activity against Mycobacterium tuberculosis BE11677 after 5 days by spectrophotometry; format: functional; conditions: BE11677, 120 h
[17] = tested on: Mycobacterium tuberculosis; test: Antimycobacterial activity against Mycobacterium tuberculosis TN1008 after 5 days by spectrophotometry; format: functional; conditions: TN1008, 120 h
[18] = tested on: Mycobacterium tuberculosis; test: Antimycobacterial activity against Mycobacterium tuberculosis E8133 after 5 days by spectrophotometry; format: functional; conditions: E8133, 120 h
[19] = tested on: Mycobacterium tuberculosis; test: Antimycobacterial activity against Mycobacterium tuberculosis TN1040 after 5 days by spectrophotometry; format: functional; conditions: TN1040, 120 h
[20] = tested on: Mycobacterium tuberculosis; test: Antimycobacterial activity against Mycobacterium tuberculosis TN675 after 5 days by spectrophotometry; format: functional; conditions: TN675, 120 h
[21] = tested on: Mycobacterium tuberculosis; test: Antimycobacterial activity against Mycobacterium tuberculosis TN3183 after 5 days by spectrophotometry; format: functional; conditions: TN3183, 120 h

Row | SMILES | CC50 at 72 h [1] [µM] | MBC90 [2] [µM] | MIC50 [3] [µM] | CC50 at 72 h [4] [µM] | also measured
1 | O=C(CSc1nnc(-c2ccncc2)s1)Nc1ccccc1 | 16.2 | 1.25 (≈ 0.411 µg/mL) | 0.18 (≈ 0.0591 µg/mL) | 15.2 | –
2 | O=C(CSc1nnc(-c2ccncc2)s1)NCc1ccccc1 | 11.3 | 1.25 (≈ 0.428 µg/mL) | 0.19 (≈ 0.0651 µg/mL) | 17.7 | –
3 | O=C(CSc1nnc(-c2ccncc2)s1)NCc1ccccc1Cl | – | – | 9.67 (≈ 3.64 µg/mL) | – | –
4 | O=C(CSc1nnc(-c2ccncc2)s1)NCc1ccc(Cl)cc1 | > 50 | – | 11.7 (≈ 4.42 µg/mL) | > 50 | –
5 | O=C(CSc1nnc(-c2ccncc2)s1)Nc1ccccc1Cl | > 50 | – | 8.52 (≈ 3.09 µg/mL) | > 50 | –
6 | O=C(CSc1nnc(-c2ccncc2)s1)Nc1ccc(Cl)cc1 | > 50 | – | 6.81 (≈ 2.47 µg/mL) | > 50 | –
7 | O=C(CSc1nnc(-c2ccncc2)s1)Nc1c(Cl)cccc1Cl | – | – | > 20 | – | –
8 | O=C(CSc1nnc(-c2ccncc2)s1)Nc1ccc(Cl)cc1Cl | – | – | > 20 | – | –
9 | CC(Sc1nnc(-c2ccncc2)s1)C(=O)Nc1ccccc1 (stereo unspecified) | > 50 | 5 (≈ 1.71 µg/mL) | 1.48 (≈ 0.507 µg/mL) | > 50 | –
10 | CC(Sc1nnc(-c2ccncc2)s1)C(=O)NCc1ccccc1 (stereo unspecified) | > 50 | 5 (≈ 1.78 µg/mL) | 1.15 (≈ 0.41 µg/mL) | > 50 | –
11 | CC(Sc1nnc(-c2ccncc2)s1)C(=O)NCc1ccccc1Cl (stereo unspecified) | > 50 | 5 (≈ 1.95 µg/mL) | 1.26 (≈ 0.493 µg/mL) | > 50 | –
12 | CC(Sc1nnc(-c2ccncc2)s1)C(=O)NCc1ccc(Cl)cc1 (stereo unspecified) | – | – | > 20 | – | –
13 | CC(Sc1nnc(-c2ccncc2)s1)C(=O)Nc1ccccc1Cl (stereo unspecified) | > 50 | 5 (≈ 1.88 µg/mL) | 1.04 (≈ 0.392 µg/mL) | > 50 | –
14 | CC(Sc1nnc(-c2ccncc2)s1)C(=O)Nc1ccc(Cl)cc1 (stereo unspecified) | > 50 | 1.25 (≈ 0.471 µg/mL) | 0.12 (≈ 0.0452 µg/mL) | > 50 | –
15 | CC(Sc1nnc(-c2ccncc2)s1)C(=O)Nc1c(Cl)cccc1Cl (stereo unspecified) | > 50 | 5 (≈ 2.06 µg/mL) | 1.19 (≈ 0.489 µg/mL) | > 50 | –
16 | CC(Sc1nnc(-c2ccncc2)s1)C(=O)Nc1ccc(Cl)cc1Cl (stereo unspecified) | > 50 | 5 (≈ 2.06 µg/mL) | 2.45 (≈ 1.01 µg/mL) | > 50 | –
17 | O=C(CCSc1nnc(-c2ccncc2)s1)Nc1ccccc1 | > 50 | 2.5 (≈ 0.856 µg/mL) | 0.61 (≈ 0.209 µg/mL) | > 50 | –

Row | SMILES | CC50 at 72 h [1] [µM] | MBC90 [2] [µM] | MIC50 [3] [µM] | CC50 at 72 h [4] [µM] | also measured
18 | O=C(CCSc1nnc(-c2ccncc2)s1)NCc1ccccc1 | 18.7 | 2.5 (≈ 0.891 µg/mL) | 0.67 (≈ 0.239 µg/mL) | 14 | –
19 | O=C(CCSc1nnc(-c2ccncc2)s1)NCc1ccccc1Cl | > 50 | 2.5 (≈ 0.977 µg/mL) | 0.65 (≈ 0.254 µg/mL) | > 50 | –
20 | O=C(CCSc1nnc(-c2ccncc2)s1)NCc1ccc(Cl)cc1 | 21.5 | 2.5 (≈ 0.977 µg/mL) | 0.63 (≈ 0.246 µg/mL) | 15.6 | –
21 | O=C(CCSc1nnc(-c2ccncc2)s1)Nc1ccccc1Cl | > 50 | 2.5 (≈ 0.942 µg/mL) | 0.62 (≈ 0.234 µg/mL) | > 50 | –
22 | O=C(CCSc1nnc(-c2ccncc2)s1)Nc1ccc(Cl)cc1 | 8.21 | 1.25 (≈ 0.471 µg/mL) | 0.07 (≈ 0.0264 µg/mL) | 7.26 | MIC [5]: 0.06 µg/mL (≈ 0.159 µM); MIC [6]: 0.013 µg/mL (≈ 0.0345 µM); MIC [7]: 0.06 µg/mL (≈ 0.159 µM); MIC [8]: 0.03 µg/mL (≈ 0.0796 µM); MIC [9]: 0.25 µg/mL (≈ 0.663 µM); MIC [10]: 0.06 µg/mL (≈ 0.159 µM); MIC [11]: 0.13 µg/mL (≈ 0.345 µM); MIC [12]: 0.06 µg/mL (≈ 0.159 µM); MIC [13]: 0.06 µg/mL (≈ 0.159 µM); MIC [14]: 0.25 µg/mL (≈ 0.663 µM); MIC [3]: 0.015 µg/mL (≈ 0.0398 µM); MIC [15]: 0.25 µg/mL (≈ 0.663 µM); MIC [16]: 0.25 µg/mL (≈ 0.663 µM); MIC [17]: 0.06 µg/mL (≈ 0.159 µM); MIC [18]: 0.13 µg/mL (≈ 0.345 µM); MIC [19]: 0.03 µg/mL (≈ 0.0796 µM); MIC [20]: 0.013 µg/mL (≈ 0.0345 µM); MIC [21]: 0.06 µg/mL (≈ 0.159 µM)
23 | O=C(CCSc1nnc(-c2ccncc2)s1)Nc1c(Cl)cccc1Cl | 10.3 | 2.5 (≈ 1.03 µg/mL) | 0.59 (≈ 0.243 µg/mL) | 12.6 | –
24 | O=C(CCSc1nnc(-c2ccncc2)s1)Nc1ccc(Cl)cc1Cl | > 50 | 2.5 (≈ 1.03 µg/mL) | 0.55 (≈ 0.226 µg/mL) | > 50 | –
25 | CC(CSc1nnc(-c2ccncc2)s1)C(=O)Nc1ccccc1 (stereo unspecified) | > 50 | 5 (≈ 1.78 µg/mL) | 2.26 (≈ 0.806 µg/mL) | > 50 | –
26 | CC(CSc1nnc(-c2ccncc2)s1)C(=O)NCc1ccccc1 (stereo unspecified) | > 50 | 5 (≈ 1.85 µg/mL) | 2.51 (≈ 0.93 µg/mL) | > 50 | –
27 | CC(CSc1nnc(-c2ccncc2)s1)C(=O)NCc1ccccc1Cl (stereo unspecified) | > 50 | 5 (≈ 2.02 µg/mL) | 1.89 (≈ 0.765 µg/mL) | > 50 | –
28 | CC(CSc1nnc(-c2ccncc2)s1)C(=O)NCc1ccc(Cl)cc1 (stereo unspecified) | – | – | 1.68 (≈ 0.68 µg/mL) | – | –
29 | CC(CSc1nnc(-c2ccncc2)s1)C(=O)Nc1ccccc1Cl (stereo unspecified) | > 50 | 5 (≈ 1.95 µg/mL) | 2.05 (≈ 0.801 µg/mL) | > 50 | –
30 | CC(CSc1nnc(-c2ccncc2)s1)C(=O)Nc1ccc(Cl)cc1 (stereo unspecified) | > 50 | 1.25 (≈ 0.489 µg/mL) | 0.22 (≈ 0.086 µg/mL) | > 50 | –
31 | CC(CSc1nnc(-c2ccncc2)s1)C(=O)Nc1c(Cl)cccc1Cl (stereo unspecified) | > 50 | 5 (≈ 2.13 µg/mL) | 1.55 (≈ 0.659 µg/mL) | > 50 | –
32 | CC(CSc1nnc(-c2ccncc2)s1)C(=O)Nc1ccc(Cl)cc1Cl (stereo unspecified) | > 50 | 5 (≈ 2.13 µg/mL) | 1.48 (≈ 0.63 µg/mL) | > 50 | –
33 | S=c1[nH]nc(-c2ccncc2)s1 | 14.7 | 1.25 (≈ 0.244 µg/mL) | 0.2 (≈ 0.0391 µg/mL) | 19.7 | –
34 | NNC(=O)c1ccncc1 [ISONIAZID] | – | – | 0.03 (≈ 0.00411 µg/mL) | – | MIC [5]: 0.03 µg/mL (≈ 0.219 µM); MIC [6]: 0.03 µg/mL (≈ 0.219 µM); MIC [7]: 0.03 µg/mL (≈ 0.219 µM); MIC [8]: 0.03 µg/mL (≈ 0.219 µM); MIC [9]: 0.06 µg/mL (≈ 0.438 µM); MIC [10]: 0.03 µg/mL (≈ 0.219 µM); MIC [11]: 0.06 µg/mL (≈ 0.438 µM); MIC [12]: 0.03 µg/mL (≈ 0.219 µM); MIC [13]: 0.03 µg/mL (≈ 0.219 µM); MIC [14]: 0.19 µg/mL (≈ 1.39 µM); MIC [3]: 0.03 µg/mL (≈ 0.219 µM); MIC [15]: 0.06 µg/mL (≈ 0.438 µM); MIC [16]: 0.2 µg/mL (≈ 1.46 µM); MIC [17]: 0.06 µg/mL (≈ 0.438 µM); MIC [18]: 0.08 µg/mL (≈ 0.583 µM); MIC [19]: 0.03 µg/mL (≈ 0.219 µM); MIC [20]: 0.03 µg/mL (≈ 0.219 µM); MIC [21]: 0.03 µg/mL (≈ 0.219 µM)
